# Laboratory results reported in patent US20110306621A1, “ACYLGUANIDINE DERIVATIVES” (priority 2009, published 2011).
# Counter-ions that a name gives are not always drawn.
# Molecular target: T1, human 5-HT5A receptor (Homo sapiens, UniProt P47898)
# T1 construct: expressed in transfected cells; membranes used
# Assay: Test on a human 5-HT5A receptor binding inhibition ([3H]5-CT)
# Details: membrane from HEK293 cells for forced expression of human 5-HT5A receptor; Ki calculated from IC50 and Kd of [3H]5-CT (4.95 nM)
# Description: The ORF (open reading frame; protein coding region) of a human 5-HT5A receptor (Genbank AF498985) was cloned from a human hippocampus cDNA library, and then inserted into a pCR2.1 vector (Invitrogen), and Escherichia coli containing the plasmid was cultured in a large amount. Next, the full-length cDNA sequence of the human 5-HT5A receptor was analyzed, and recombined into a pcDNA3.1 vector (Invitrogen) as an expression vector and cultured in a large amount. HEK293 established cells (ATCC) derived from the human fetal kidney were seeded, the expression plasmid (1 μg) obtained above were added thereto with LIPOFECTAMINE 2000 (Invitrogen; 2 μl), the gene was transfected into HEK293 cells, and the expression cells were screened with a drug-resistant marker, Geneticin (G418 sulfate 500 μg/ml; Kanto Chemical Co., Inc.). Thus prepared recombinant cells which expressed the gene were cultured in a medium containing D-MEM (Dulbecco's modified eagle medium, Sigma), 10% FCS (Fetal calf serum: fetal bovine serum), 1% Pc./Sm (Penicillin/Streptomycin, Invitrogen), and 500 μg/ml G418 for 3 days. These experimental operations followed a manual for gene operation experiment and an instruction appended in a reagent, and the like, such as a known method (Sambrook, J. et al, Molecular Cloning-A Laboratory Manual”, Cold Spring Harabor laboratory, NY, 1989).
# HEK293 cells for forced expressions of a human 5-HT5A receptor were cultured in a F500 plate, and scraped with a scraper. After centrifugation, the precipitate was collected, and an incubation buffer (50 mM Tris (HCl) (pH 7.4), 10 mM MgSO4, and 0.5 mM EDTA (ethylenediamine tetraacetic acid)) was added thereto. After homogenization, it was further centrifuged, and the incubation buffer was added to the precipitate, followed by thoroughly suspending. The operation was repeated, and protein concentration was measured, thereby completing preparation of the membrane.
# A solution of the compound to be tested and 100 μM 5-CT (5-carboxamidetriptamine) in DMSO was added to a 96-well plate at 2 μl/well, suspended in an incubation buffer, and a membrane from HEK293 cells for forced expressions of a human 5-HT5A receptor prepared at 200 μg/ml was added at 100 μl/well. After incubation at room temperature for 15 minutes, a [^3H]5-CT solution (2 nM [^3H]5-CT, incubation buffer) was added thereto at 100 μl/well.
# Separately, 100 μl of the solution was distributed into a liquid scintillation vial, and 2 ml of Aquasol II (registered trademark) was added thereto, followed by stirring. Then, radioactivity was measured by a liquid scintillation counter. It was incubated at 37° C. for 60 minutes. The reaction mixture was sucked into 96-well GF/C filter plate that had been pre-treated with 0.2% polyethyleneimine, and washed six times with an ice-cooled, 50 mM Tris (pH 7.5) buffer. The GF/C filter plate was dried.
# Microscint TMPS (registered trademark) was added thereto at 40 μl/well. Radioactivity remaining on the GF/C filter plate was measured by a top counter.
# The [^3H]5-CT binding inhibiting activity by the compound to be tested in each experiment was determined as an IC50 value with a radioactivity upon addition of DMSO alone being 0% inhibition, and a radioactivity upon addition of 1 μM 5-CT being 100% inhibition. Separately, Ki values were calculated from the Kd value of the [^3H]5-CT determined from Scatchard analysis, by the following equation.
# Ki=IC50 (1+Concentraion of ligand added/Kd (4.95 nM))
# T1 sequence (P47898 whole entry): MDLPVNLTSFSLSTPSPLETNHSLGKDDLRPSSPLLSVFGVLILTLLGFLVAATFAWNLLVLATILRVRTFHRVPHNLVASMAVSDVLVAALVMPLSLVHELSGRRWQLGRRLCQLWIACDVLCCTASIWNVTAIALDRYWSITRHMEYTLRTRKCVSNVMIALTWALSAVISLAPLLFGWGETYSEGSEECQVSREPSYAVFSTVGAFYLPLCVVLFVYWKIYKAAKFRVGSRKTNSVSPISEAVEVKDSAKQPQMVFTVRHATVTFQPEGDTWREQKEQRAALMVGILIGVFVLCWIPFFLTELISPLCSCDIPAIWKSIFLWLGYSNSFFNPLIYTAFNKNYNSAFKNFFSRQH
row,Compound,Ki
1,"NC(N)=NC(=O)c1ccc2cccc(-c3c(F)cccc3Cl)c2c1 [Example 1, 8-(2-chloro-6-fluorophenyl)-N-(diaminomethylene)-2-naphthamide hydrochloride]",0.96 nM
2,COc1ccc(-c2cccc3ccc(C(=O)N=C(N)N)cc23)c(OC)c1 [Example 5],0.3 to 3 nM
3,COc1ccccc1-c1c(Cl)ccc2ccc(C(=O)N=C(N)N)cc12 [Example 124],0.3 to 3 nM
4,Cc1ccc2ccc(C(=O)N=C(N)N)cc2c1-c1ccc(C#N)cc1 [Example 10],0.3 to 3 nM
5,N#Cc1cc(-c2cccc3ccc(C(=O)N=C(N)N)cc23)ccn1 [Example 170],3 to 30 nM
6,COc1cc(-c2cccc3ccc(C(=O)N=C(N)N)cc23)ccn1 [Example 112],3 to 30 nM
7,NC(N)=NC(=O)c1ccc2cccc(-c3cc(C4CC4)ncc3Cl)c2c1 [Example 185],0.3 to 3 nM
8,NC(N)=NC(=O)c1ccc2cccc(-c3c(F)cc(F)cc3Cl)c2c1 [Example 140],0.3 to 3 nM
9,NC(N)=NC(=O)c1ccc2cccc(-c3ccc(F)cc3)c2c1 [Example 88],0.3 to 3 nM
10,NC(N)=NC(=O)c1ccc2ccc(Cl)c(-c3ccccc3F)c2c1 [Example 110],0.3 to 3 nM
11,CCOc1nccc(-c2cccc3ccc(C(=O)N=C(N)N)cc23)c1C#N [Example 64],3 to 30 nM
12,NC(N)=NC(=O)c1ccc2cccc(C3=CCOCC3)c2c1 [Example 22],3 to 30 nM
13,NC(N)=NC(=O)c1ccc2cccc(-c3ccncc3Cl)c2c1 [Example 44],0.3 to 3 nM
14,COc1cccnc1-c1cccc2ccc(C(=O)N=C(N)N)cc12 [Example 195],30 to 300 nM
15,NC(N)=NC(=O)c1ccc2cccc(-c3c(O)cccc3F)c2c1 [Example 104],0.3 to 3 nM
16,COc1ccc(-c2cccc3ccc(C(=O)N=C(N)N)cc23)c(C#N)c1 [Example 72],3 to 30 nM
17,NC(N)=NC(=O)c1ccc2cccc(-c3cccc4cccnc34)c2c1 [Example 123],3 to 30 nM
18,NC(N)=NC(=O)c1ccc2cccc(-c3cccc4c3OC(F)(F)O4)c2c1 [Example 115],3 to 30 nM
19,COc1ccc(-c2cccc3ccc(C(=O)N=C(N)N)cc23)c(F)c1 [Example 82],0.3 to 3 nM

row,Compound,Ki
1,NC(N)=NC(=O)c1ccc2cccc(-c3ncc(C(F)(F)F)cc3Cl)c2c1 [Example 194],3 to 30 nM
2,NC(N)=NC(=O)c1ccc2cccc(-c3cc(Cl)cnc3F)c2c1 [Example 84],3 to 30 nM
3,NC(N)=NC(=O)c1ccc2cccc(-c3cccnc3Cl)c2c1 [Example 19],3 to 30 nM
4,NC(N)=NC(=O)c1ccc2cccc(-c3ncc(C4CC4)cc3Cl)c2c1 [Example 192],3 to 30 nM
5,NC(N)=NC(=O)c1ccc2cccc(-c3c(Cl)cncc3Cl)c2c1 [Example 45],0.3 to 3 nM
6,COc1ccc(-c2cccc3ccc(C(=O)N=C(N)N)cc23)cc1 [Example 90],0.3 to 3 nM
7,COc1cc(F)cc(F)c1-c1cccc2ccc(C(=O)N=C(N)N)cc12 [Example 42],0.3 to 3 nM
8,NC(N)=NC(=O)c1ccc2cccc(-c3ncc(Cl)cc3Cl)c2c1 [Example 151],0.3 to 3 nM
9,NC(N)=NC(=O)c1ccc2cccc(-c3ccnc(C4CC4)c3C3CC3)c2c1 [Example 202],3 to 30 nM
10,NC(N)=NC(=O)c1ccc2cccc(-c3ccccc3-c3ccccc3)c2c1 [Example 101],30 to 300 nM
11,NC(N)=NC(=O)c1ccc2cccc(-c3c(F)cccc3OC(F)F)c2c1 [Example 107],0.3 to 3 nM
12,NC(N)=NC(=O)c1ccc2ccc(F)c(-c3ccccc3O)c2c1 [Example 161],0.3 to 3 nM
13,NC(N)=NC(=O)c1ccc2cccc(-c3cc(Cl)ccc3F)c2c1 [Example 70],0.3 to 3 nM
14,NC(N)=NC(=O)c1ccc2cccc(-c3ccccc3OC(F)F)c2c1 [Example 93],3 to 30 nM
15,NC(N)=NC(=O)c1ccc2cccc(-c3cccnc3F)c2c1 [Example 62],0.3 to 3 nM
16,Cc1ccc(-c2cccc3ccc(C(=O)N=C(N)N)cc23)c(F)n1 [Example 86],3 to 30 nM
17,NC(N)=NC(=O)c1ccc2cccc(-c3sccc3Cl)c2c1 [Example 49],0.3 to 3 nM
18,NC(N)=NC(=O)c1ccc2cccc(-c3c(F)cccc3C3CC3)c2c1 [Example 191],0.3 to 3 nM
19,NC(N)=NC(=O)c1ccc2cccc(C3CC3)c2c1 [Example 103],3 to 30 nM

row,Compound,Ki
1,NC(N)=NC(=O)c1ccc2ccc(F)c(-c3ccncc3F)c2c1 [Example 113],0.3 to 3 nM
2,Cn1nccc1-c1cccc2ccc(C(=O)N=C(N)N)cc12 [Example 79],3 to 30 nM
3,Cc1nc(-c2cccc3ccc(C(=O)N=C(N)N)cc23)ccc1F [Example 158],30 to 300 nM
4,N#Cc1ccc(-c2cccc3ccc(C(=O)N=C(N)N)cc23)nc1 [Example 184],3 to 30 nM
5,COc1cccc(Cl)c1-c1cccc2ccc(C(=O)N=C(N)N)cc12 [Example 32],0.3 to 3 nM
6,COc1ccccc1-c1c(Cl)cc(Cl)c2ccc(C(=O)N=C(N)N)cc12 [Example 136],3 to 30 nM
7,N#Cc1ccc(-c2c(Cl)ccc3ccc(C(=O)N=C(N)N)cc23)cc1 [Example 125],0.3 to 3 nM
8,NC(N)=NC(=O)c1ccc2cccc(-c3cccc4nonc34)c2c1 [Example 179],3 to 30 nM
9,NC(N)=NC(=O)c1ccc2cccc(-c3ccnc(C4CC4)c3F)c2c1 [Example 198],0.3 to 3 nM
10,Cc1cnc(-c2cccc3ccc(C(=O)N=C(N)N)cc23)c(Cl)c1 [Example 200],3 to 30 nM
11,Cc1ccc2ccc(C(=O)N=C(N)N)cc2c1-c1ccncc1F [Example 114],0.3 to 3 nM
12,NC(N)=NC(=O)c1ccc2cccc(-c3ccnc(Cl)c3F)c2c1 [Example 172],3 to 30 nM
13,NC(N)=NC(=O)c1ccc2cccc(-c3cc(Cl)ccc3Cl)c2c1 [Example 76],0.3 to 3 nM
14,NC(N)=NC(=O)c1ccc2cccc(-c3ncc(F)cc3F)c2c1 [Example 190],0.3 to 3 nM
15,Cc1ccsc1-c1cccc2ccc(C(=O)N=C(N)N)cc12 [Example 48],0.3 to 3 nM
16,NC(N)=NC(=O)c1ccc2cccc(-c3cccc4c3OCC4)c2c1 [Example 95],0.3 to 3 nM
17,NC(N)=NC(=O)c1ccc2cccc(-c3cc(C(F)(F)F)ccn3)c2c1 [Example 176],30 to 300 nM
18,NC(N)=NC(=O)c1ccc2c(F)ccc(-c3c(F)cccc3F)c2c1 [Example 175],0.3 to 3 nM
19,NC(N)=NC(=O)c1ccc2cccc(-c3c(O)ccc(F)c3F)c2c1 [Example 117],0.3 to 3 nM

# Test system: mouse in which hyperactivity was caused by methamphetamine (MAP) or MK-801
# Assay: Improvement effect on increase in motion induced by methamphetamine or MK-801 in mice
# Assay type: in vivo
# Details: male ICR mouse; compound oral at a dose of 0.1 mg/kg; MK-801 0.3 mg/kg i.p.; motion for 60 minutes; P<0.05
# Description: The improvement effect of compound of formula (I) was evaluated by measuring the quantity of motion by IR irradiation when a compound was administered to a mouse in which hyperactivity was caused by methamphetamine (hereinafter, simply referred to as “MAP”) or MK-801, known as an animal model of schizophrenia.
# The animal was taken out of the breeding cage, orally administered with a compound to be tested, and then placed into a cage for breeding. After 30 minutes, the animal was put into a cage for measurement, and motion with the compound to be tested alone was measured. After 30 to 90 minutes, the animal was taken out, and intraperitoneally administered with a drug for increasing the motion (MAP; 1 mg/kg or MK-801; 0.3 mg/kg, dissolved in a physiological saline, respectively). Then, motion for a certain period of time (60 minutes) was measured by using a motion measurement device
# (CompACT AMS from Muromachi Kikai Co., Ltd.) by means of an infrared sensor.
# For normal mouse (a mouse administered with physiological saline) and mouse administered with a drug for increasing the motion, a Student's T test was performed for evaluation for each interval. For a mouse group administered with the compound to be tested, an assay was performed using a solvent (vehicle) group and a Dunnett's T test. […]
row,Compound,inhibition of hyperactivity caused by MK-801
1,"NC(N)=NC(=O)c1ccc2cccc(-c3c(F)cccc3Cl)c2c1 [Example 1, 8-(2-chloro-6-fluorophenyl)-N-(diaminomethylene)-2-naphthamide hydrochloride]",significantly inhibited
